Measured values reported in patent publication US20220305092A1, “MEDICAMENT AND FOOD FOR PREVENTING OR TREATING NOVEL CORONAVIRUS PNEUMONIA COVID-19 AND USE THEREOF” (GUANGZHOU CENTURY CLINICAL RESEARCH CO., LTD, priority 2020, published 2022).

How the values were obtained:
COVID-19 virus = assay: Inhibition of cytopathic effect caused by COVID-19 virus in VeroE6 cells; type: cell-based; conditions: for inhibition of the cytopathic effect caused by the COVID-19 virus (in words): Example 2, VeroE6 cells
[1] = system: guinea pigs which had inhaled smoke; assay: Airway resistance and lung function of guinea pigs which had inhaled smoke; type: in vivo, guinea pig
Method: The smoke-induced model was a classic animal model for chronic obstructive pulmonary disease. After inhaling smoke for a long period of time, animals could suffer from increased mucus secretion, airway obstruction, lung function decline, etc. The effect of the lysozyme on airway obstruction was evaluated by means of the model establishment method in the present experiment.
Lysozyme, monoammonium glycyrrhizinate, and monopotassium glycyrrhizinate.
Male Hartley guinea pigs, weighing 400 to 500 g, were randomly divided into a blank group, a model group, a lysozyme oral administration group (200 mg/kg), a lysozyme inhalation group (2 mg/kg), lysozyme+monoammonium glycyrrhizinate inhalation group (2 mg/kg+0.1 mg/kg), lysozyme+monopotassium glycyrrhizinate oral administration group I (200 mg/kg+20 mg/kg), and lysozyme+monopotassium glycyrrhizinate oral administration group II (200 mg/kg+40 mg/kg), with eight animals in each group.
The animals in each group except the blank group were exposed to cigarette smoke by using a smoke exposure system for oro-nasal inhalation only, such that the animals inhaled smoke of five cigarettes within 40 minutes per day, for 5 exposure days per week, for 12 consecutive weeks.
The lysozyme and monoammonium glycyrrhizinate used for inhalation administration were respectively crushed into powders with a particle size of less than 10 μm. The lysozyme and monopotassium glycyrrhizinate used for oral administration were respectively dissolved in normal saline.
The animals in each group except the blank group and the model group were administered once a day for 4 consecutive weeks from the 8th week after the model establishment began. The inhalation administration groups were administered by means of an oro-nasal inhalation exposure system, while the oral administration groups were administered intragastrically. Animals in the blank group and the model group were administered intragastrically with normal saline per day.
Airway resistance measurement and 100 ms (millisecond) expiratory volume measurement were performed after administration.
The animals were placed in a double chamber plethysmography system, and after the animals were left in a tranquil state for 10 minutes, the specific airway resistance (sRaw) was measured. The animals were anesthetized by intramuscular injection of ketamine, then a catheter was then inserted into the trachea, and the forced expiratory volume in 100 ms (FEV 100) of the animals was measured through a lung function testing system.

[2] = system: lipopolysaccharide-induced intestinal barrier dysfunction in mice; assay: Intestinal permeability (serum FITC-glucan) in lipopolysaccharide-induced intestinal barrier dysfunction in mice; type: in vivo, mouse; conditions: 100 mg/kg intragastrically, 30 days, model 35.06, blank 9.40
Excerpt: Lipopolysaccharides could cause impaired intestinal function in animals. The protective effect of lysozyme and lysozyme combinations against lipopolysaccharide-induced intestinal barrier dysfunction in mice were studied in the present experiment.
Test drugs: lysozyme, monoammonium glycyrrhizinate, and dipotassium glycyrrhizinate.
Test animals: clean-grade male C57BL/6 mice, weighing 20 to 25 g.
Animal grouping and administration: The animals were randomly divided into a blank group, a model group, a lysozyme group (100 mg/kg), lysozyme+monoammonium glycyrrhizinate group A (100 mg/kg+2 mg/kg), lysozyme+monoammonium glycyrrhizinate group B (100 mg/kg+10 mg/kg), lysozyme+monoammonium glycyrrhizinate group C (100 mg/kg+20 mg/kg), and a lysozyme+dipotassium glycyrrhizinate group (100 mg/kg+2 mg/kg), with eight animals in each group. […]
Determination of intestinal permeability: The animals of each group were administered intragastrically with 600 mg/kg of FITC-glucan (dissolved in a phosphate buffer), and after 4 hours, blood was taken from eyeballs. The content of the FITC-glucan in the serum was measured by means of fluorescence spectrometry (with an excitation wavelength of 480 nm and an emission wavelength of 520 nm), and the results were shown in Table 5.

Claudin-1 protein = assay: Claudin-1 mRNA expression in jejunum tissue of lipopolysaccharide-treated mice (quantitative PCR); type: in vivo, mouse; conditions: 100 mg/kg, model 0.73, blank 1.07
Method: (§1) Animal grouping and administration: The animals were randomly divided into a blank group, a model group, a lysozyme group (100 mg/kg), lysozyme+monoammonium glycyrrhizinate group A (100 mg/kg+2 mg/kg), lysozyme+monoammonium glycyrrhizinate group B (100 mg/kg+10 mg/kg), lysozyme+monoammonium glycyrrhizinate group C (100 mg/kg+20 mg/kg), and a lysozyme+dipotassium glycyrrhizinate group (100 mg/kg+2 mg/kg), with eight animals in each group. Each drug group was administered intragastrically by each dose of drugs every day, while the blank group and the model group were administered with normal saline. The administration was performed for 30 consecutive days.
(§2) Model establishment: After administration, the animals of each group except the blank group were intraperitoneally injected with 15 mg/kg of lipopolysaccharides, and the blank group was injected with normal saline. The animals were fasted for 12 hours after injection.
(§3) Determination of expression of tight junction proteins in intestinal tissue: After the animals were sacrificed, jejunum tissue samples were taken for RNA extraction, the relative expression levels of occludin protein and Claudin-1 protein in the tissues were detected by quantitative PCR and the results were shown in Table 6.

occludin protein = assay: Occludin mRNA expression in jejunum tissue of lipopolysaccharide-treated mice (quantitative PCR); type: in vivo, mouse; conditions: 100 mg/kg, model 0.54, blank 1.04
Method: as §1, §2, §3

[3] = inhalation, 2 mg/kg once a day for 4 weeks

CC1(C)[C@@H](O[C@H]2O[C@H](C(=O)O)[C@@H](O)[C@H](O)[C@H]2O[C@@H]2O[C@H](C(=O)O)[C@@H](O)[C@H](O)[C@H]2O)CC[C@]2(C)[C@H]3C(=O)C=C4[C@@H]5C[C@@](C)(C(=O)O)CC[C@]5(C)CC[C@@]4(C)[C@]3(C)CC[C@@H]12.N [Monoammonium glycyrrhizinate, monoammonium glycyrrhizinate]
Inhibition rate (%) (COVID-19 virus; 1000 μg/ml, VeroE6 cells, 100 TCID50, 4 days): 23.35 ± 5.43% | Inhibition rate (%) (COVID-19 virus; 2000 μg/ml, VeroE6 cells, 100 TCID50, 4 days): 29.42 ± 7.16% | inhibition of the cytopathic effect caused by the COVID-19 virus (in words) (COVID-19 virus): relatively weak inhibition effect

lysozyme
Inhibition rate (%) (COVID-19 virus; 350 μg/ml, Example 3): 6.67 ± 1.56% | inhibition of the cytopathic effect caused by the COVID-19 virus (in words) (COVID-19 virus): significantly inhibited | 100 ms expiratory volume [1, 3]: 7.68 ± 1.36 mL | Airway resistance (cmH2O · s) [1, 3]: 3.10 ± 0.14 cmH2O · s | 100 ms expiratory volume ([1]; oral administration, 200 mg/kg once a day for 4 weeks, model 4.18, blank 11.86): 5.79 ± 2.03 mL | Airway resistance (cmH2O · s) ([1]; oral administration, 200 mg/kg once a day for 4 weeks, model 4.72, blank 1.43): 3.79 ± 0.30 cmH2O · s | Content of FITC-glucan [2]: 27.53 ± 3.21 µg/mL | Relative expression quantity of Claudin-1 mRNA (Claudin-1 protein): 0.79 ± 0.16 | Relative expression quantity of Occludin mRNA (occludin protein): 0.69 ± 0.07
